{"source": "patent US20220378861A1", "about": "“COMPOSITIONS AND METHODS FOR DELIVERING CANNABINOIDS USING MICRONEEDLE DEVICES TO THE SKIN” (AQUAVIT PHARMACEUTICALS, INC., priority 2019, published 2022)", "origin": "cited, not measured here", "details": "oral absorption, after extensive first pass liver metabolism", "data": [{"smiles": "CCCCCc1cc(O)c2c(c1)OC(C)(C)[C@@H]1CCC(C)=C[C@@H]21", "note": "[THC, tetrahydrocannabinol]", "values": [{"measurement": "bioavailability to the systemic circulation", "result": 6, "unit": "%"}]}]}
